# Experimental data taken from patent publication US20250034136A1 (Nimbus Wadjet, Inc., priority 2023, published 2025).
# Key:
# [1] = target: WRN (BV08), human Werner helicase (Uniprot Q14191, amino acids 517-1235 with L1074F point mutation) (Homo sapiens (Human), UniProt Q14191, L1074F); test: WRN (BV08) ADP-Glo assay; type: biochemical; details: class symbols A-E, read-out: ADP-Glo_hWRN_IC50
# [2] = test system: p21 induction in HCT116 cells; test: p21 induction in HCT116 cells; type: cell-based; details: Homo sapiens, HCT-116, 24 h, HCT116 cells, 24 h compound incubation; read-out: P21_EC50
# Method in brief: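 EC50 from non-linear curve fit of p21 immunofluorescence (800 nm), with GAPDH (700 nm) read alongside. DMSO and a reference WRN inhibitor served as low and high controls. Cells (2,000/well) got 11 compound concentrations in duplicate for 24 h at 37 °C.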
# Sequence of WRN (BV08), human Werner helicase (Uniprot Q14191, amino acids 517-1235 with L1074F point mutation) (Q14191 other isoform, or with tags, fused parts or gaps L1074F (already in the parent)): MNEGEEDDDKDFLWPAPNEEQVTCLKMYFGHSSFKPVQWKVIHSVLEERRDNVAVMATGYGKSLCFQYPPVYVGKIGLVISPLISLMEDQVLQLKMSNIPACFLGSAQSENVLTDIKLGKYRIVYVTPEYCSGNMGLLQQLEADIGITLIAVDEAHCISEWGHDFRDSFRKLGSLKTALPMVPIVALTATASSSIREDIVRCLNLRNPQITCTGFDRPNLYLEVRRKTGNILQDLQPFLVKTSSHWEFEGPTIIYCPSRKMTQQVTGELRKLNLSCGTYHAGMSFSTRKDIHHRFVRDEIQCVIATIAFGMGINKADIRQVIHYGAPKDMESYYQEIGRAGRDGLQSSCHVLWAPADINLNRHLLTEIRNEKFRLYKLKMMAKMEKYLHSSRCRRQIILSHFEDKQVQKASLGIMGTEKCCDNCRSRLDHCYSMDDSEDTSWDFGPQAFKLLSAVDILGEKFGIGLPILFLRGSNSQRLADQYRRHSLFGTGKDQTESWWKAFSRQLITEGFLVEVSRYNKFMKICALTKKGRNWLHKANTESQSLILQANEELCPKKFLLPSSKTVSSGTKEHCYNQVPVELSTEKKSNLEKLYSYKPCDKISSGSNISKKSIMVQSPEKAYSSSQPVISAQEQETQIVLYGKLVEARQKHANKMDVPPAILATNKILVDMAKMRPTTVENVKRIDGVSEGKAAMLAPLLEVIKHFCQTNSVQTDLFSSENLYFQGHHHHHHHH
IC50 [1],EC50 [2],Compound
5 to 50 nM,< 500 nM,"CCc1c(N2CCN(C(=O)c3ncnc(C)c3O)CC2)c(=O)c2nc3cc(C)oc3nc2n1CC(=O)Nc1ccc(C(F)(F)F)cc1Cl [I-112, N-(2-chloro-4-(trifluoromethyl)phenyl)-2-(7-ethyl-6-(4-(5-hydroxy-6-methylpyrimidine-4-carbonyl)piperazin-1-yl)-2-methyl-5-oxofuro[2,3-b]pyrido[3,2-e]pyrazin-8(5H)-yl)acetamide]"
≤ 5 nM,< 500 nM,"CCc1c(N2CCN(C(=O)c3ncnc(C)c3O)CC2)c(=O)c2nc3sc(C)cc3nc2n1CC(=O)Nc1ccc(C(F)(F)F)cc1Cl [I-113, N-(2-chloro-4-(trifluoromethyl)phenyl)-2-(6-ethyl-7-(4-(5-hydroxy-6-methylpyrimidine-4-carbonyl)piperazin-1-yl)-2-methyl-8-oxopyrido[2,3-b]thieno[2,3-e]pyrazin-5(8H)-yl)acetamide]"
5 to 50 nM,< 500 nM,"CCc1c(N2CCN(C(=O)c3ncnc(C)c3O)[C@H]3CC[C@@H]32)c(=O)c2nc3nc(C)sc3nc2n1CC(=O)Nc1ccc(C(F)(F)F)cc1Cl [I-114, N-(2-chloro-4-(trifluoromethyl)phenyl)-2-(6-ethyl-7-((1S,6S)-5-(5-hydroxy-6-methylpyrimidine-4-carbonyl)-2,5-diazabicyclo[4.2.0]octan-2-yl)-2-methyl-8-oxopyrido[2,3-b]thiazolo[4,5-e]pyrazin-5(8H)-yl)acetamide]"
5 to 50 nM,> 5000 nM,"CCc1c(N2CCN(C(=O)c3ncnc(C)c3O)CC2)c(=O)c2nc3cc(C)sc3nc2n1CC(=O)NC12CC(C(F)(F)F)(C1)C2 [I-115, 2-(7-ethyl-6-(4-(5-hydroxy-6-methylpyrimidine-4-carbonyl)piperazin-1-yl)-2-methyl-5-oxopyrido[2,3-b]thieno[3,2-e]pyrazin-8(5H)-yl)-N-(3-(trifluoromethyl)bicyclo[1.1.1]pentan-1-yl)acetamide]"
5 to 50 nM,500 to 2000 nM,"CCc1c(N2CCN(C(=O)c3ncnc(C)c3O)CC2)c(=O)c2nc3c(nc2n1CC(=O)Nc1ccc(C(F)(F)F)cc1Cl)CCN3C [I-116, N-(2-chloro-4-(trifluoromethyl)phenyl)-2-(6-ethyl-7-(4-(5-hydroxy-6-methylpyrimidine-4-carbonyl)piperazin-1-yl)-1-methyl-8-oxo-1,2,3,8-tetrahydro-5H-pyrido[2,3-b]pyrrolo[2,3-e]pyrazin-5-yl)acetamide]"
5 to 50 nM,< 500 nM,"CCc1c(N2CCN(C(=O)c3ncnc(C)c3O)CC2)c(=O)c2nc(C=C3CC(OC)C3)cnc2n1CC(=O)Nc1ccc(C(F)(F)F)cc1Cl (stereo not shown) [I-117, N-(2-chloro-4-(trifluoromethyl)phenyl)-2-(6-ethyl-7-(4-(5-hydroxy-6-methylpyrimidine-4-carbonyl)piperazin-1-yl)-2-((3-methoxycyclobutylidene)methyl)-8-oxopyrido[2,3-b]pyrazin-5(8H)-yl)acetamide]"
5 to 50 nM,500 to 2000 nM,"CCc1c(N2CCN(C(=O)c3ncnc(C)c3O)C[C@@H]2C)c(=O)c2nc(N(C)C)nnc2n1CC(=O)Nc1ccc(C(F)(F)F)cc1Cl [I-118, (S)—N-(2-chloro-4-(trifluoromethyl)phenyl)-2-(3-(dimethylamino)-7-ethyl-6-(4-(5-hydroxy-6-methylpyrimidine-4-carbonyl)-2-methylpiperazin-1-yl)-5-oxopyrido[3,2-e] [1,2,4]triazin-8(5H)-yl)acetamide]"
5 to 50 nM,< 500 nM,"CCc1c(N2CCN(C(=O)c3ncnc(C)c3O)[C@H]3CC[C@@H]32)c(=O)c2nc(N(C)C)cnc2n1CC(=O)Nc1ccc(OC(F)(F)F)cc1 [I-120, 2-[2-(dimethylamino)-6-ethyl-7-[(1S,6S)-5-(5-hydroxy-6-methylpyrimidine-4-carbonyl)-2,5-diazabicyclo[4.2.0]octan-2-yl]-8-oxo-5H,8H-pyrido[2,3-b]pyrazin-5-yl]-N-[4-(trifluoromethoxy)phenyl]acetamide]"
5 to 50 nM,< 500 nM,"CCc1c(N2CCN(C(=O)c3ncnc(C)c3O)[C@H]3CC[C@@H]32)c(=O)c2nc(N(C)C)cnc2n1CC(=O)Nc1ccc(C(F)(F)F)cc1F [I-121, 2-(2-(dimethylamino)-6-ethyl-7-((1S,6S)-5-(5-hydroxy-6-methylpyrimidine-4-carbonyl)-2,5-diazabicyclo[4.2.0]octan-2-yl)-8-oxopyrido[2,3-b]pyrazin-5(8H)-yl)-N-(2-fluoro-4-(trifluoromethyl)phenyl)acetamide]"
5 to 50 nM,< 500 nM,"CCc1c(N2CCN(C(=O)c3ncnc(C)c3O)[C@H]3CCC[C@@H]32)c(=O)c2nc3cc(C)oc3nc2n1CC(=O)Nc1ccc(C(F)(F)F)cc1Cl [I-123, 2-{11-[(4aS,7aS)-4-(5-hydroxy-6-methylpyrimidine-4-carbonyl)-octahydro-1H-cyclopenta[b]pyrazin-1-yl]-12-ethyl-5-methyl-10-oxo-4-oxa-2,8,13-triazatricyclo[7.4.0.0^{3,7}]trideca-1,3(7),5,8,11-pentaen-13-yl}-N-[2-chloro-4-(trifluoromethyl)phenyl]acetamide]"
5 to 50 nM,< 500 nM,"CCc1c(N2CCN(C(=O)c3ncnc(C)c3O)[C@H]3CC[C@@H]32)c(=O)c2cc(N(C)C)cnc2n1CC(=O)Nc1ccc(C(F)(F)F)cc1Cl [I-124, N-[2-chloro-4-(trifluoromethyl)phenyl]-2-[6-(dimethylamino)-2-ethyl-3-[(1S,6S)-5-(5-hydroxy-6-methylpyrimidine-4-carbonyl)-2,5-diazabicyclo[4.2.0]octan-2-yl]-4-oxo-1,4-dihydro-1,8-naphthyridin-1-yl]acetamide]"
≤ 5 nM,< 500 nM,"CCc1c(N2CCN(C(=O)c3ncnc(C)c3O)[C@H]3CC[C@@H]32)c(=O)c2nc(C3CC3)cnc2n1CC(=O)Nc1ccc(C(F)(F)F)cc1F [I-125, 2-(2-cyclopropyl-6-ethyl-7-((1S,6S)-5-(5-hydroxy-6-methylpyrimidine-4-carbonyl)-2,5-diazabicyclo[4.2.0]octan-2-yl)-8-oxopyrido[2,3-b]pyrazin-5(8H)-yl)-N-(2-fluoro-4-(trifluoromethyl)phenyl)acetamide]"
5 to 50 nM,< 500 nM,"CCc1c(N2CCN(C(=O)c3ncnc(C)c3O)[C@H]3CC[C@@H]32)c(=O)c2nc(C)c(C)nc2n1CC(=O)Nc1ccc(C(F)(F)F)cc1Cl [I-126, N-(2-chloro-4-(trifluoromethyl)phenyl)-2-(6-ethyl-7-((1S,6S)-5-(5-hydroxy-6-methylpyrimidine-4-carbonyl)-2,5-diazabicyclo[4.2.0]octan-2-yl)-2,3-dimethyl-8-oxopyrido[2,3-b]pyrazin-5(8H)-yl)acetamide]"
5 to 50 nM,< 500 nM,"CCc1c(N2CCN(C(=O)c3c(OC)ncc(C)c3O)[C@H]3CC[C@@H]32)c(=O)c2nc(C)c(C)nc2n1CC(=O)Nc1ccc(C(F)(F)F)cc1Cl [I-127, N-[2-chloro-4-(trifluoromethyl)phenyl]-2-{6-ethyl-7-[(1S,6S)-5-(4-hydroxy-2-methoxy-5-methylpyridine-3-carbonyl)-2,5-diazabicyclo[4.2.0]octan-2-yl]-2,3-dimethyl-8-oxo-5H,8H-pyrido[2,3-b]pyrazin-5-yl}acetamide]"
5 to 50 nM,< 500 nM,"CCc1c(N2CCN(C(=O)c3ncnc(C)c3O)[C@H]3CC[C@@H]32)c(=O)c2nc(C)c(C)nc2n1CC(=O)Nc1ccc(C(F)(F)F)cc1F [I-128, 2-(6-ethyl-7-((1S,6S)-5-(5-hydroxy-6-methylpyrimidine-4-carbonyl)-2,5-diazabicyclo[4.2.0]octan-2-yl)-2,3-dimethyl-8-oxopyrido[2,3-b]pyrazin-5(8H)-yl)-N-(2-fluoro-4-(trifluoromethyl)phenyl)acetamide]"
5 to 50 nM,< 500 nM,CCc1c(N2CCN(C(=O)c3ncnc(C)c3O)[C@H]3CC[C@@H]32)c(=O)c2nc(N(C)C)c(C)nc2n1CC(=O)Nc1ccc(C(F)(F)F)cc1F [I-129]
5 to 50 nM,< 500 nM,"CCc1c(N2CCN(C(=O)c3ncnc(C)c3O)[C@H]3CCC[C@@H]32)c(=O)c2nc(N(C)C)cnc2n1CC(=O)Nc1ccc(C(F)(F)F)cc1Cl [I-130, 2-{7-[(4aS,7aS)-4-(5-hydroxy-6-methylpyrimidine-4-carbonyl)-octahydro-1H-cyclopenta[b]pyrazin-1-yl]-2-(dimethylamino)-6-ethyl-8-oxo-5H,8H-pyrido[2,3-b]pyrazin-5-yl}-N-[2-chloro-4-(trifluoromethyl)phenyl]acetamide]"
5 to 50 nM,500 to 2000 nM,"CCc1c(N2CCN(C(=O)c3ncnc(C)c3O)CC2)c(=O)c2nc(N(C)C3CCC3)cnc2n1CC(=O)Nc1ccc(C(F)(F)F)cc1Cl [I-131, N-[2-chloro-4-(trifluoromethyl)phenyl]-2-{2-[cyclobutyl(methyl)amino]-6-ethyl-7-[4-(5-hydroxy-6-methylpyrimidine-4-carbonyl)piperazin-1-yl]-8-oxo-5H,8H-pyrido[2,3-b]pyrazin-5-yl}acetamide]"
5 to 50 nM,< 500 nM,"CCc1c(N2CCN(C(=O)c3ncnc(C)c3O)CC2)c(=O)c2nc(N(C)C)cnc2n1CC(=O)Nc1ccc(S(F)(F)(F)(F)F)cc1Cl [I-132, N-[2-chloro-4-(pentafluoro-lambda6-sulfanyl)phenyl]-2-[2-(dimethylamino)-6-ethyl-7-[4-(5-hydroxy-6-methylpyrimidine-4-carbonyl)piperazin-1-yl]-8-oxo-5H,8H-pyrido[2,3-b]pyrazin-5-yl]acetamide]"
5 to 50 nM,> 5000 nM,"CCc1c(N2CCN(C(=O)c3ncnc(C)c3O)CC2)c(=O)c2nc(N(C)C)cnc2n1CC(=O)Nc1c(F)cc(C(F)(F)F)cc1Cl [I-133, N-[2-chloro-6-fluoro-4-(trifluoromethyl)phenyl]-2-[2-(dimethylamino)-6-ethyl-7-[4-(5-hydroxy-6-methylpyrimidine-4-carbonyl)piperazin-1-yl]-8-oxo-5H,8H-pyrido[2,3-b]pyrazin-5-yl]acetamide]"
